This is an account of results in patent US20240216410A1, “METHODS AND COMPOSITIONS FOR TREATING CANCER THERAPY-INDUCED NEUTROPENIC FEVER AND/OR GVHD” (BOARD OF REGENTS, THE UNIVERSITY OF TEXAS SYSTEM, priority 2021, published 2024).

Entries after “also recorded” stand apart in the source; their conditions may differ.

The test system of test [1] is Lachnospiraceae unclassified (MDA-JAX LS001). The experiment in a line: MIC of meropenem by MIC test strips. It counts as cell-based. Particulars: mouse-derived. The method, then: (§1) The minimum inhibitory concentration (MIC) of meropenem against murine BT was quantified using MIC test strips (Table 4).
(§2) Culturing of bacteria. Mouse-derived BT (MDA-JAX BT001), Enterococcus faecalis (MDA-JAX EF001) and Clostridium disporicum (MDA-JAX CD001), Clostridium saudiense (MDA-JAX CS001), and Lachnospiraceae unclassified (MDA-JAX LS001) were isolated and cultured from mouse stool samples suspended in 1 ml of chilled 20% anaerobic glycerol in a Whitley anaerobic chamber (10% H2, 5% CO2 and 85% N2). Human-derived BT (ATCC 29148) was purchased from ATCC. Bacterial number was quantified using a Nexcelom Cellometer cell counter with SYTO™ BC dye and propidium iodide. For measuring MICs against meropenem, bacteria were cultured on BYE plates including 5% sterilized rumen fluid (Fisher Scientific) with MIC test strips (LIOFILCHEM™ MTS™ Meropenem [MRP] 0.016-256 μg/mL, THERMO FISHER […]™)). Bacterial growth experiments were in liquid media were performed in a novel bacterial media, BYEM10, composed of a hybrid of BHI and M10 supplemented with yeast extract (Table 5).

Test [2] relates to Clostridium saudiense (MDA-JAX CS001). The experiment in a line: MIC of meropenem by MIC test strips. The format is cell-based. To be noted: mouse-derived. The method, then: as §1, §2
The test system of test [3] is Enterococcus faecalis (MDA-JAX EF001). The experiment in a line: MIC of meropenem by MIC test strips. It counts as cell-based. To be noted: mouse-derived. Here is the method: as §1, §2
Test [4] deals with Bacteroides thetaiotaomicron (ATCC 29148). The experiment in a line: MIC of meropenem by MIC test strips. It counts as cell-based. To be noted: ATCC29148, human-derived BT. The method, then:
as §1, §2

The test system of test [5] is Clostridium disporicum (MDA-JAX CD001). The experiment in a line: MIC of meropenem by MIC test strips. It counts as cell-based. Particulars: mouse-derived. Here is the method:
as §1, §2

Test [6] relates to Bacteroides thetaiotaomicron (MDA-JAX BT001). The experiment in a line: MIC of meropenem by MIC test strips. It counts as cell-based. Particulars: mouse-derived BT. Here is the method: as §1, §2
The nature of test [7]: Murine GVHD model: fecal SCFAs by IC-MS. The format is in vivo. Particulars: day 18; meropenem-treated allo-HSCT mice. From the text: In some cases, meropenem-induced intestinal dysbiosis contributes to aggravated GVHD via loss of beneficial commensal bacteria. In some embodiments, meropenem-treated allogeneic mice show a loss of Clostridia abundance and a reduction in SCFA levels, including butyrate. On day 7, or 4 days following the start of meropenem treatment, Clostridia were depleted in meropenem-treated mice and remained so at 6 days after stopping 5 meropenem (FIG. 20A).
Short Chain Fatty Acids profiling by ion chromatography-mass spectrometry (IC-MS). To determine the relative abundance of short chain fatty acids in mouse feces samples, extracts were prepared and analyzed by ultra-high resolution mass spectrometry (HRMS). Fecal pellets were homogenized with a […]® Tissue Homogenizer. Metabolites were extracted using 1 mL ice-cold 0.1% Ammonium hydroxide in 80/20 (v/v) methanol/water. Extracts were centrifuged at 17,000 g for 5 min at 4° C., and supernatants were transferred to clean tubes, followed by evaporation to dryness under nitrogen. Dried extracts were reconstituted in deionized water, and 5 μL was injected for analysis by IC-MS. IC mobile phase A (MPA; weak) was water, and mobile phase B (MPB; strong) was water containing 100 mM KOH. A THERMO […]™ DIONEX™ ICS-5000+ system included a THERMO FISHER […]™ IONPAC™ AS11 column ([…], 250×2 mm) with column compartment kept at 30° C. […]

By MIC is commonly meant the lowest concentration found to suppress growth. `C[C@@H](O)[C@H]1C(=O)N2C(C(=O)O)=C(S[C@@H]3CN[C@H](C(=O)N(C)C)C3)[C@H](C)[C@H]12` [meropenem]: the MIC in test [1] turned out to be 0.38 µg/mL; in test [2] it was 0.38 µg/mL; in test [3], 12 µg/mL; in test [4] it was 6 µg/mL; in test [5] it was 0.094 µg/mL; in test [6], 4 µg/mL. The “fecal levels of SCFAs” value in test [7] was “significantly decreased; also recorded: reduced fecal levels of SCFAs, with particularly dramatic reductions in butyrate and valerate”.
